Laboratory results reported in ChEMBL document CHEMBL3217714, “Synthesis and anti HSV-1 evaluation of novel indole-3,4-diones” (Medchemcomm, 2011).
The source made the active and inactive calls. No cut-off for these calls is given here.

Key:
[1] = test system: Human alphaherpesvirus 1; experiment: Antiviral activity against HSV-1 infected in African green monkey Vero cells at 10 to 100 uM by plaque reduction assay; assay type: functional, organism-based
[2] = test system: Human alphaherpesvirus 1; experiment: Antiviral activity against HSV-1 infected in African green monkey Vero cells assessed as reduction in plaque formation at 10 to 100 uM by inverted microscopy; assay type: functional, organism-based
[3] = test system: Vero; experiment: Cytotoxicity against African green monkey Vero cells at 40 to 100 uM compound in water by trypan blue exclusion assay; assay type: cell-based; conditions: chlorocebus sabaeus
[4] = test system: Vero; experiment: Cytotoxicity against African green monkey Vero cells at 1 to 100 uM compound in DMSO by trypan blue exclusion assay; assay type: cell-based; conditions: chlorocebus sabaeus

Row | SMILES | inhibition [1] | Activity [2] | Activity [3] | Activity [4]
1 | CC1CC(=O)C2C(=O)C(C)N=C2C1 (stereo not given) | Dose-dependent effect | Active | Non-toxic | Non-toxic
2 | CC1N=C2CC(C)(C)CC(=O)C2C1=O (stereo not given) | Dose-dependent effect | – | Non-toxic | Non-toxic
3 | CC1N=C2CCCC(=O)C2C1=O (stereo not given) | Dose-dependent effect | – | Non-toxic | Non-toxic
